From ChEMBL document CHEMBL1201862, “PubChem BioAssay data set” (2004)
Activity calls are given as the source filed them.

What was measured:
[1] = THP-1 cell cytotoxicity, dose response, cytotoxicity control for non-replicating M. tuberculosis project (AID 489025); format: functional
[2] = Vero E6 cell cytotoxicity, dose response, cytotoxicity control for non-replicating M. tuberculosis project, secondary assay (AID 492998); format: functional, VeroE6; conditions: Vero C1008
[3] = biological target: T1, Fatty acid synthase (Homo sapiens, UniProt P49327); test: inhibition of human FAS-TE enzyme activity – biochemical, endpoint fluorescence intensity, uHTS hits, dose response (AID 624327); format: functional;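 also: fluorescence from hydrolysis of an O-methyl fluorescein acyl ester substrate by the enzyme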
[4] = biological target: T2, Microphthalmia-associated transcription factor (Homo sapiens, UniProt O75030); test: reducers of TRPM1 reporter luminescence, concentration series – cell-based, SK-MEL-5, cherry-picked, set 3, MITF inhibitor project, dose response (AID 493073); format: functional;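 also: SK-MEL-5 melanoma cells with luciferase driven by the MITF target TRPM1 promoter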
T2 sequence (O75030 whole entry): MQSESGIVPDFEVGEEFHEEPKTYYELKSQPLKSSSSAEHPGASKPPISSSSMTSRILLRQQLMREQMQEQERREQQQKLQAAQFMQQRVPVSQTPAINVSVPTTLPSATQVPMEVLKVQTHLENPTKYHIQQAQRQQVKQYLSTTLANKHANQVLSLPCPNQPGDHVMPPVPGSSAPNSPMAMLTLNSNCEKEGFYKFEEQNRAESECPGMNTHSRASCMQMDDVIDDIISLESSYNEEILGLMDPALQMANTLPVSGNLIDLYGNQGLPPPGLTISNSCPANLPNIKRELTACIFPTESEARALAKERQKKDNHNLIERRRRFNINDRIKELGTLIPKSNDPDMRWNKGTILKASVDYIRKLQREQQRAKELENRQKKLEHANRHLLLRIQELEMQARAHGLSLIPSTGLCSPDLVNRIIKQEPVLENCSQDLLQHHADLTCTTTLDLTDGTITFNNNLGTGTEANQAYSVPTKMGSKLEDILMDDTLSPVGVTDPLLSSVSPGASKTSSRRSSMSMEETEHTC

[5] = loss of viability in HepG2 cells – cell-based, CellTiter-Glo, cherry-picked, cytotoxicity control for Shn3 inhibitor project, dose response (AID 624134); format: functional
[6] = biological target: T3, Kappa-type opioid receptor (Homo sapiens, UniProt P41145); format: functional
[7] = biological target: T4, Bifunctional protein GlmU (Mycobacterium tuberculosis, UniProt P9WMN3); test: Inhibitors of Mycobacterial Glucosamine-1-phosphate acetyl transferase (GlmU). Secondary screen.; set-up: species or system Mycobacterium tuberculosis H37Rv
T4 sequence (P9WMN3 whole entry): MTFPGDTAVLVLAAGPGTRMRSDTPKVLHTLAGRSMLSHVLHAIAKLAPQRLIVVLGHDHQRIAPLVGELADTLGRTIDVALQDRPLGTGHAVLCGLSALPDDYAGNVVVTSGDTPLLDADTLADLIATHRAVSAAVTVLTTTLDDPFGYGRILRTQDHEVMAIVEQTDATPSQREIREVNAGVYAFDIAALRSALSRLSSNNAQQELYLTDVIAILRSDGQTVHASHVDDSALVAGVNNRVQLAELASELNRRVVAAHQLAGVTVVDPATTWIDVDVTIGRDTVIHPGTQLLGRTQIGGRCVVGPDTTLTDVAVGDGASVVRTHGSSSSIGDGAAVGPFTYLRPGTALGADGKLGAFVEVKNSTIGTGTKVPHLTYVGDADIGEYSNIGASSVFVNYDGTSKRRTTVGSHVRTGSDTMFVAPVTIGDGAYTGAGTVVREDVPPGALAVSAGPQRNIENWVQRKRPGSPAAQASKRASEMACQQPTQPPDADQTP

[8] = biological target: T5, Delta-type opioid receptor (Homo sapiens, UniProt P41143); test: HTS Image-Based Screen for Antagonists of the DOR Receptor. [Related pubchem assays (depositor defined):AID1777, AID1785, AID1786, AID2133]; format: functional
[9] = biological target: T1, Fatty acid synthase; test: inhibition of human FAS-TE enzyme activity – biochemical, kinetic fluorescence intensity, dose response (AID 624326); format: functional;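 also: rate of fluorescence rise from hydrolysis of a fluorogenic O-methyl fluorescein ester substrate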
[10] = viability of PTEN-deleted HCT116 cells – cell-based, HCT116 PTEN knockout, dose response (AID 1047); format: functional;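 also: HCT116 colon tumor cells with PTEN knocked out; cells exposed to compound for 60 hours before readout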
[11] = tested on: CHO; test: CHO cell viability loss, potency – luminescence, cytotoxicity control for TLR9-MyD88 binding inhibitor project, dose response (AID 588339); format: functional, cell-based, hamster; conditions: Cricetulus griseus;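 also: CHO cells stably coexpressing TLR9 and MyD88 fusions from primary screen; compound exposure lasted 48 hours before viability readout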
[12] = biological target: Mu-type opioid receptor (Homo sapiens, UniProt P35372); test: HTS Image-Based Screen for Agonists of the MOR Receptor. [Related pubchem assays (depositor defined):AID1777, AID1785, AID1786, AID2133]; format: functional;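 also: imaging of beta-arrestin GFP recruitment into spots after receptor activation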
[13] = biological target: Beta-galactosidase (Escherichia coli, UniProt Q8VNN2); format: functional
[14] = viability of HCT116 lacking mutant beta-catenin – cell-based, human colon tumor, dose response (AID 1045); format: functional;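 also: HCT116 colon tumor cells with beta catenin knocked out; cells exposed to compound for 60 hours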
[15] = reduction of Shn3 3'UTR-driven luciferase in osteoblasts – cell-based, Clone20 osteoblasts, firefly luciferase, cherry-picked, dose response (AID 624132); format: functional;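 also: firefly luciferase luminescence from reporter carrying the Shn3 3'UTR in osteoblasts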
[16] = Trypanosoma cruzi growth suppression in host cells – NIH3T3 host cells, beta-gal luminescence, confirmation (AID 2044); format: functional, cell-based;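 also: intracellular parasites grown in NIH/3T3 mouse fibroblasts as host cells; luminescent beta-galactosidase reporter signal from transgenic T. cruzi replicating inside host cells; inhibitors lower the luminescence signal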
[17] = non-specific 3'UTR reporter inhibition in Clone20-Shn3RL – cell-based, Renilla luciferase, cherry-picked, counter-screen for Shn3 inhibitor project, dose response (AID 624133); format: functional
[18] = biological target: Beta Lactamase (Pseudomonas aeruginosa, UniProt Q932Y6); test: BLA reporter interference, concentration series – BLA reporter cells, FRET fluorescence, artefact control for TLR9-MyD88 binding inhibitor project, dose response (AID 588341); format: cell-based;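 also: cell based assay in CHO-K1 cells stably expressing beta-lactamase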
[19] = NIH3T3 cell viability loss – ATP luminescence, mouse fibroblasts, counter-screen, dose response (AID 2010); format: functional, cell-based;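 also: cells exposed to compound for about 90 hours before reading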
[20] = biological target: T3, Kappa-type opioid receptor; format: functional; remark: listed apart in the source
[21] = cells; format: functional
[22] = HepG2 cell cytotoxicity, dose response, cytotoxicity control for non-replicating M. tuberculosis project (AID 489018); format: functional; conditions: Mycobacterium tuberculosis
[23] = biological target: T5, Delta-type opioid receptor; test: HTS Image-Based Screen for Agonists of the DOR Receptor. [Related pubchem assays (depositor defined):AID1777, AID1786, AID2133]; format: functional

T5 sequence (P41143 whole entry): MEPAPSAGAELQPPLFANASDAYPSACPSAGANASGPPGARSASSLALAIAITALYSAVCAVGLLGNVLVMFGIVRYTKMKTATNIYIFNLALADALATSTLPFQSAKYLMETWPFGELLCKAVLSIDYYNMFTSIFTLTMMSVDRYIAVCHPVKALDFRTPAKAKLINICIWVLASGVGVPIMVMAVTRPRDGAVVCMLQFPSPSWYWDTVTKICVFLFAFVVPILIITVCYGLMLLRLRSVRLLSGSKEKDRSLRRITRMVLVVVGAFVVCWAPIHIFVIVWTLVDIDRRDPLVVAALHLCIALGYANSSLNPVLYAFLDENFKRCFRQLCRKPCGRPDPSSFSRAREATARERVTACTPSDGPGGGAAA
T3 sequence (P41145 whole entry): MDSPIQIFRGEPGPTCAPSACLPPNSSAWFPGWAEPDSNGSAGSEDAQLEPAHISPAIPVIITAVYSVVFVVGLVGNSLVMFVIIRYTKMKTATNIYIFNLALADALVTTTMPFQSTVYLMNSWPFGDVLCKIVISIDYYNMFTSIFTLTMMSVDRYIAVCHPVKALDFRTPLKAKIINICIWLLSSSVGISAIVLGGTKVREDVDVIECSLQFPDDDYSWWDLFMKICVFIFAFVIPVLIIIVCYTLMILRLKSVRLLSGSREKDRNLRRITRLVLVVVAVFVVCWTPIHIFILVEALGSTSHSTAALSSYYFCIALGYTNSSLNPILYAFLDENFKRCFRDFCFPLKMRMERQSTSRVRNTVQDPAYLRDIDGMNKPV
T1 sequence (P49327 whole entry): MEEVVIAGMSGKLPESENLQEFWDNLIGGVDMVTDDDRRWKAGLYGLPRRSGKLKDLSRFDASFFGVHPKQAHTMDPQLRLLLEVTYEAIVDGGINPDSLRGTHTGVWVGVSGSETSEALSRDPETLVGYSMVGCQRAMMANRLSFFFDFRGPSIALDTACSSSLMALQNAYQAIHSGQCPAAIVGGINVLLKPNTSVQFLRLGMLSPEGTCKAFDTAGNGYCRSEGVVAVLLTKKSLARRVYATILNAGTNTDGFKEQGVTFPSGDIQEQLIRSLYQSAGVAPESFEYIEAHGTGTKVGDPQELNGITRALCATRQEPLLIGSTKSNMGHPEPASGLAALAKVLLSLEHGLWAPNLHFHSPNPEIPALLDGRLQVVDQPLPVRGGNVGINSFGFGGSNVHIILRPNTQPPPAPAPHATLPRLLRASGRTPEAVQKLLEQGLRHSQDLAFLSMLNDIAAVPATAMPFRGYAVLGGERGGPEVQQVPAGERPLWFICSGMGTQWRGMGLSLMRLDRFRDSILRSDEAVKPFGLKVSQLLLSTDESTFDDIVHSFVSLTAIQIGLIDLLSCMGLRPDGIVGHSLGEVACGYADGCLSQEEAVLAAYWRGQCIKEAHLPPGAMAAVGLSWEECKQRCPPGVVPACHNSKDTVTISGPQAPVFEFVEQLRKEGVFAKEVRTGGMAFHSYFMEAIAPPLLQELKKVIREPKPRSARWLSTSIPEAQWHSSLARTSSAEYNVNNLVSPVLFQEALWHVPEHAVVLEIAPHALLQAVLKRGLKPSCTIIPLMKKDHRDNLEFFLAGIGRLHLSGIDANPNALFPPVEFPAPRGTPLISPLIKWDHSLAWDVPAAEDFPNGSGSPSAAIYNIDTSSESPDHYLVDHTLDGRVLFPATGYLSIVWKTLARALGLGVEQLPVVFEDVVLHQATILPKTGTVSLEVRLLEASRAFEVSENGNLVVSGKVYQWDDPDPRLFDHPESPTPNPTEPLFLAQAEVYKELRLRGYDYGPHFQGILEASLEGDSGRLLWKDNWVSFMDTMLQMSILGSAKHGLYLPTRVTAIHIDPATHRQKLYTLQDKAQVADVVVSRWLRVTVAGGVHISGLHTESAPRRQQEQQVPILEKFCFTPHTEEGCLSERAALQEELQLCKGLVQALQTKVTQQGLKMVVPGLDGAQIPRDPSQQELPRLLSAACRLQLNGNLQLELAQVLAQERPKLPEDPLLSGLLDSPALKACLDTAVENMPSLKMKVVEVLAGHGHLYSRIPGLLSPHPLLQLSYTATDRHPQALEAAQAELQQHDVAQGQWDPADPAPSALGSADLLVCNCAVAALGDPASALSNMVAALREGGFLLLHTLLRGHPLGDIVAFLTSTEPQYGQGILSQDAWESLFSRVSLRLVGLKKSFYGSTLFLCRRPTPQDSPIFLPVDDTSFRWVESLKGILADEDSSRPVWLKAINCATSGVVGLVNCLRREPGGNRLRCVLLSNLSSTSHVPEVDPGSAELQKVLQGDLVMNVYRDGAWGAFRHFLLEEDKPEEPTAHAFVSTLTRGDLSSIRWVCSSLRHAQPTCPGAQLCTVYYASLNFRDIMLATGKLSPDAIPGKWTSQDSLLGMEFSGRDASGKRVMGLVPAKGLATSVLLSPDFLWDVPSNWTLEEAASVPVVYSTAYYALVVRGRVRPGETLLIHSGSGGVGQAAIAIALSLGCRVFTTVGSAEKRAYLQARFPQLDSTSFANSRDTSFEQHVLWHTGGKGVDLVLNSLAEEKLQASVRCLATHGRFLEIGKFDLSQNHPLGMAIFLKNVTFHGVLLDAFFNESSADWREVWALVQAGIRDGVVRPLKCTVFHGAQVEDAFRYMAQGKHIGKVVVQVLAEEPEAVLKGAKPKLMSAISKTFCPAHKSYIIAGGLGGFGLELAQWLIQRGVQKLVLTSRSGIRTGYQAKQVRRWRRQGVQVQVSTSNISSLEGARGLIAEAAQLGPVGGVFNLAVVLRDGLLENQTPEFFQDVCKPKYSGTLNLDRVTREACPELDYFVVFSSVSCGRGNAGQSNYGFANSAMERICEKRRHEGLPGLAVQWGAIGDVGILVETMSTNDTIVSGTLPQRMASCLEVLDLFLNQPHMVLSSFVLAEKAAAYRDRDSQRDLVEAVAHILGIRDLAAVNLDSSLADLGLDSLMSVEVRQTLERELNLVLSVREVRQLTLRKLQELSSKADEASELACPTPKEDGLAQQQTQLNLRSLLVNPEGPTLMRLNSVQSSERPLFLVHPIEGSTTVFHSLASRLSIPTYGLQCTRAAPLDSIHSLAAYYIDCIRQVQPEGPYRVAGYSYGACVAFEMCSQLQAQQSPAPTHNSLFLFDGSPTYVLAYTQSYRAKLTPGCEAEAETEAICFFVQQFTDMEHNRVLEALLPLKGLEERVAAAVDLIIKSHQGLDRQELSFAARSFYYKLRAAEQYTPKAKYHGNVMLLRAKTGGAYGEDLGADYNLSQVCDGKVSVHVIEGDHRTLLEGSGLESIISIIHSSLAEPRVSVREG
Sequence of Mu-type opioid receptor (P35372 whole entry): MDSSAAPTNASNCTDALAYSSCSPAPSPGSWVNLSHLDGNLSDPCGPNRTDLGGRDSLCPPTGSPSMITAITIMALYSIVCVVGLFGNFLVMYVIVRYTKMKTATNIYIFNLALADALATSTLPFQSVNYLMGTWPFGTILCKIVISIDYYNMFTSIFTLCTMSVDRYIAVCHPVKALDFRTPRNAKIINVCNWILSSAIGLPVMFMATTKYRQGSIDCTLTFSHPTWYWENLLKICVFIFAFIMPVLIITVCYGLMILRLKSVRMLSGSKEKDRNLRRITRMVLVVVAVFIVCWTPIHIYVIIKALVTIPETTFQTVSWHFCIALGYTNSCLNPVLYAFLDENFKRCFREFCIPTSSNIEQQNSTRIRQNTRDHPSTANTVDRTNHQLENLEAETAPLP
Sequence of Beta Lactamase (Q932Y6 whole entry): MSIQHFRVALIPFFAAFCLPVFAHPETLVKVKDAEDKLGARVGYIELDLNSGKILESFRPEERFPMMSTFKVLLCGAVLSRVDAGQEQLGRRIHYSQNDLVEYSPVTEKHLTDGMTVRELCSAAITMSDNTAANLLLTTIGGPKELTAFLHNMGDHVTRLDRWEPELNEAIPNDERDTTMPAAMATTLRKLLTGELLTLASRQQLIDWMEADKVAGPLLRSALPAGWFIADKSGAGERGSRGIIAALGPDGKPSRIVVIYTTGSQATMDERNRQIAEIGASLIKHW
Sequence of Beta-galactosidase (Q8VNN2 whole entry): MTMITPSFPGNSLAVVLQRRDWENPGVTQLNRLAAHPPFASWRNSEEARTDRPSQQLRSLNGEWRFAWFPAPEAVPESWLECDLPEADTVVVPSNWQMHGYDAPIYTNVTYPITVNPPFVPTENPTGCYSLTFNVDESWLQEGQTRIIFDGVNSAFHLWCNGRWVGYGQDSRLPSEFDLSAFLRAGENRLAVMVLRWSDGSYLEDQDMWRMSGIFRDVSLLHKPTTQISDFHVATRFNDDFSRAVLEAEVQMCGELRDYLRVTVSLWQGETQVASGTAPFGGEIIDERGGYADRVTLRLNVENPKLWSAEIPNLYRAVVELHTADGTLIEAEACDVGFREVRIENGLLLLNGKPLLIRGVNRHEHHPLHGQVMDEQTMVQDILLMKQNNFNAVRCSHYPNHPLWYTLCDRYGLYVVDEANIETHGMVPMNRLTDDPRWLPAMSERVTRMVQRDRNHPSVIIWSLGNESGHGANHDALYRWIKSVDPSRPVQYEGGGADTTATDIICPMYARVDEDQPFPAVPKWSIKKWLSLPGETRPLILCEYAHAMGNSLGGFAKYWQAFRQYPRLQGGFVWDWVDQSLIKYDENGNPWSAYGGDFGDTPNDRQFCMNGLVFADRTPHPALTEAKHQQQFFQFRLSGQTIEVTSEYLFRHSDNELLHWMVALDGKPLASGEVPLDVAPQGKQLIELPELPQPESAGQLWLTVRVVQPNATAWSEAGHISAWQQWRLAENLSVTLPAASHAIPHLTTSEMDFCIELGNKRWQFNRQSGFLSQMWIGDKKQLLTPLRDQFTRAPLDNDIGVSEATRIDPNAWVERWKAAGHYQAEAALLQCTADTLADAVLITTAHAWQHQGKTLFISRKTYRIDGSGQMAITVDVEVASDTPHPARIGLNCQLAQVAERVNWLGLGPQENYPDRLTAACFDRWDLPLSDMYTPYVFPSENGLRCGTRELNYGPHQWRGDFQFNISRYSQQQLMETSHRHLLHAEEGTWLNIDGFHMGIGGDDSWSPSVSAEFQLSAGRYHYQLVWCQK

## CC(=O)OCCNc1cc(Sc2nc3ccccc3[nH]2)c2nonc2c1[N+](=O)[O-]
[1]
  CC50: 19.9 µM (active)
[2]
  CC50: 13.5 µM (active)
[3]
  IC50: 1.75 µM (active)
[4]
  AC50: 11.5 µM (active)
[5]
  AC50: 17.5 µM (active)
[6]
  IC50: 5.01 µM (active)
[7]
  IC50: 116 µM (active)
[8]
  IC50: > 32 µM (inactive)
[9]
  IC50: 2.59 µM (active)
[10]
  EC50: 4.91 µM (active)
[11]
  IC50: 3.06 µM (active)
[12]
  EC50: > 32 µM (inactive)
[13]
  EC50: > 31.5 µM (inactive)
[14]
  EC50: 4.64 µM (active)
[15]
  AC50: 1.86 µM (active)
[16]
  EC50: 2.47 µM (active)
[17]
  AC50: 6.26 µM (active)
[18]
  IC50: 10 µM (inactive)
[19]
  EC50: 3.66 µM (active)
[20]
  IC50: 17.1 µM
[21]
  IC50: 5.83 µM (active)
[22]
  CC50: 12.4 µM (active)
[23]
  EC50: > 32 µM (inactive)
